Literature values, collected in US7399616B2, “Enzymatic synthesis of Nα-acyl-L-arginine esters” (Laboratorios Miret, S.A., priority 2002, dated 2008).

Key:
[1] = system: microorganisms; conditions: acts over external and cytoplasmatic membrane and into cytoplasmatic medium; depends on kind of microorganism and exposure time
[2] = rats; metabolised into naturally-occurring amino acids and lauric acid, excreted as carbon dioxide and urea
[3] = animals and humans

CCCCCCCCCCCC(=O)N[C@@H](CCCN=C(N)N)C(=O)OCC.Cl [LAE, ethyl ester of the laurylamide of the L-arginine monohydrochloride]
action on microorganisms (proliferation) [1]: preventing their proliferation | absorption and metabolism [2]: fast absorption and metabolism | toxicity [3]: completely harmless
